Legend:
Details in all cases: 72 h
Caco-2 [1] = test: cell viability relative to DMSO; higher = less toxic
Calu-3 [2] = test: as above
HepG2 [3] = test: as above
U2OS [4] = test: as above
Vero E6 [5] = test: as above
Caco-2 [6] = test: relative viability EC50 (midpoint between 100% and the lowest measured viability); higher = less toxic
Calu-3 [7] = test: as above
HepG2 [8] = test: as above
U2OS [9] = test: as above
Vero E6 [10] = test: as above
Caco-2 [11] = test: drug sensitivity score (DSS) for viability; higher = more toxic; extreme values may be limits of the assay
Calu-3 [12] = test: as above
HepG2 [13] = test: as above
U2OS [14] = test: as above
Vero E6 [15] = test: as above

Row | Compound | cell viability (Caco-2 [1]; 1 nM) | cell viability (Caco-2 [1]; 10 nM) | cell viability (Caco-2 [1]; 100 nM) | cell viability (Caco-2 [1]; 1000 nM) | cell viability (Caco-2 [1]; 10000 nM) | cell viability (Calu-3 [2]; 1 nM) | cell viability (Calu-3 [2]; 10 nM) | cell viability (Calu-3 [2]; 100 nM) | cell viability (Calu-3 [2]; 1000 nM) | cell viability (Calu-3 [2]; 10000 nM) | cell viability (HepG2 [3]; 1 nM) | cell viability (HepG2 [3]; 10 nM) | cell viability (HepG2 [3]; 100 nM) | cell viability (HepG2 [3]; 1000 nM) | cell viability (HepG2 [3]; 10000 nM) | cell viability (U2OS [4]; 1 nM) | cell viability (U2OS [4]; 10 nM) | cell viability (U2OS [4]; 100 nM) | cell viability (U2OS [4]; 1000 nM) | cell viability (U2OS [4]; 10000 nM) | cell viability (Vero E6 [5]; 1 nM) | cell viability (Vero E6 [5]; 10 nM) | cell viability (Vero E6 [5]; 100 nM) | cell viability (Vero E6 [5]; 1000 nM) | cell viability (Vero E6 [5]; 10000 nM) | relative viability EC50 (Caco-2 [6]) | relative viability EC50 (Calu-3 [7]) | relative viability EC50 (HepG2 [8]) | relative viability EC50 (U2OS [9]) | relative viability EC50 (Vero E6 [10]) | drug sensitivity score (Caco-2 [11]) | drug sensitivity score (Calu-3 [12]) | drug sensitivity score (HepG2 [13]) | drug sensitivity score (U2OS [14]) | drug sensitivity score (Vero E6 [15])
1 | CCN(CC)C(=O)N[C@H]1C[C@@H]2c3cccc4[nH]cc(c34)C[C@H]2N(C)C1 [terguride] | 88.6% | 93.3% | 108% | 97.2% | 99.5% | 106% | 97.4% | 95.2% | 105% | 115% | 104% | 105% | 95.9% | 92.9% | 102% | 96.4% | 95.3% | 94.5% | 99.1% | 94.7% | 105% | 106% | 104% | 99.8% | 97% | > 10 µM | > 10 µM | > 10 µM | > 10 µM | > 10 µM | 0 | 0 | 0 | 0 | 0
2 | C[C@@H](O)[C@@H]1NC(=O)[C@H](CCCCN)NC(=O)[C@@H](Cc2c[nH]c3ccccc23)NC(=O)[C@H](Cc2ccccc2)NC(=O)[C@@H](NC(=O)[C@H](N)Cc2ccccc2)CSSC[C@@H](C(=O)N[C@H](CO)[C@@H](C)O)NC1=O [octreotide] | 103% | 115% | 95.6% | 119% | 104% | 94.3% | 91.9% | 120% | 101% | 109% | 98.1% | 98.9% | 98.8% | 115% | 92.7% | 97.5% | 101% | 96% | 102% | 101% | 110% | 103% | 110% | 107% | 93% | > 10 µM | > 10 µM | > 10 µM | > 10 µM | > 10 µM | 0 | 0 | 0 | 0 | 0
3 | C=C1/C(=C\C=C2/CCC[C@]3(C)[C@@H]([C@H](C)/C=C/[C@@H](O)C4CC4)CC[C@@H]23)C[C@@H](O)C[C@@H]1O [calcipotriol] | 94.7% | 88.6% | 99.6% | 88.3% | 89.9% | 95.4% | 108% | 102% | 93.7% | 96% | 101% | 88.5% | 95% | 99.6% | 94.6% | 99.5% | 96.9% | 99% | 94.8% | 93.5% | 97.5% | 96.7% | 98.2% | 92.3% | 91.9% | > 10 µM | > 10 µM | > 10 µM | > 10 µM | > 10 µM | 0 | 0 | 0 | 0 | 0
4 | O=c1c(O)c(-c2ccc(O)c(O)c2)oc2cc(O)ccc12 [fisetin] | 96.8% | 104% | 95.3% | 96.8% | 92.8% | 93.2% | 90.1% | 95.3% | 101% | 83.2% | 95% | 111% | 104% | 107% | 105% | 97.5% | 97.6% | 102% | 94.8% | 98% | 93.3% | 97.9% | 91.3% | 97.1% | 103% | > 10 µM | > 10 µM | > 10 µM | > 10 µM | > 10 µM | 0 | 0.3 | 0 | 0 | 0
5 | CCCC[C@H]1C(=O)N(c2ccccc2)N(c2ccc(O)cc2)C1=O [oxyphenbutazone] | 99.6% | 89.2% | 96.7% | 94.9% | 44.2% | 91.2% | 104% | 103% | 110% | 97.6% | 103% | 102% | 105% | 94.2% | 7.9% | 101% | 95.8% | 100% | 96% | 9.3% | 105% | 107% | 109% | 101% | 50.3% | 2.41 µM | > 10 µM | 2.66 µM | 2.83 µM |  | 3.8 | 0 | 6 | 5.6 | 2.5
6 | Cc1cncc(CN2CCC(=C3c4ccc(Cl)cc4CCc4cccnc43)CC2)c1 [rupatadine] | 98.3% | 102% | 93.8% | 90.2% | 88.3% | 105% | 97.1% | 99.9% | 109% | 113% | 112% | 100% | 99.2% | 95.5% | 71.9% | 101% | 91.9% | 99.5% | 95.6% | 90.3% | 99% | 102% | 96.8% | 100% | 102% | > 10 µM | > 10 µM |  | > 10 µM | > 10 µM | 0.7 | 0 | 1.9 | 0 | 0
7 | COCC[n+]1c2c(n(Cc3cnccn3)c1C)C(=O)c1ccccc1C2=O [YM-155] | 81.5% | 27.8% | 3.8% | 1.7% | 1.7% | 83.9% | 34.4% | 3% | 0.5% | 0.4% | 103% | 102% | 21% | 3% | 0.4% | 100% | 44.3% | 1.5% | -0.2% | -0.1% | 90.7% | 97.4% | 87.5% | 85.2% | 52% | 0.0039 µM | 0.0051 µM | 0.0587 µM | 0.0091 µM |  | 40.1 | 39 | 27 | 37.2 | 4
8 | CC(=O)Nc1ccccc1 [acetanilide] | 98.1% | 101% | 94.5% | 107% | 94.4% | 95% | 94.6% | 103% | 98.2% | 99.8% |  |  |  |  |  | 105% | 99% | 103% | 99.1% | 98.9% | 109% | 93.7% | 102% | 103% | 104% | > 10 µM | > 10 µM |  | > 10 µM | > 10 µM | 0 | 0 |  | 0 | 0
9 | O=C1C(Cl)=C(NCCN2CCOCC2)C(=O)c2ncccc21 | 94% | 90.9% | 89.5% | 68.4% | 1.1% | 110% | 104% | 100% | 109% | 5.1% | 94% | 90.7% | 87.6% | 86.1% | 1.6% | 98.1% | 94.1% | 99.5% | 95.3% | 0% | 102% | 100% | 100% | 99.3% | 65.4% | 1.46 µM | 3.61 µM | 2.04 µM | 2.8 µM |  | 9.4 | 4.7 | 7.8 | 6.2 | 1.7
10 | Cc1ccc2nc(N)[nH]c(=O)c2c1Sc1ccncc1 [nolatrexed] | 98.2% | 98.7% | 101% | 104% | 80.3% | 97.9% | 93.4% | 85.8% | 96.9% | 99.1% | 107% | 99.5% | 97.1% | 101% | 71.6% | 94.3% | 99.3% | 92.4% | 101% | 94.3% | 103% | 97.2% | 99.8% | 98.9% | 83.1% | > 10 µM | > 10 µM |  | > 10 µM | > 10 µM | 0.4 | 0 | 1.1 | 0 | 0.5
11 | Cc1noc(-c2ccc(-c3ccc(CC(=O)O)cc3)cc2)c1NC(=O)O[C@H](C)c1ccccc1 [AM095] | 91.2% | 97.4% | 93.3% | 95.2% | 94.9% | 114% | 95.7% | 95.7% | 98.3% | 102% | 87.3% | 104% | 99.8% | 101% | 91.6% | 94.9% | 95.3% | 99% | 93% | 97.5% | 95% | 98% | 91.4% | 81.3% | 64.2% | > 10 µM | > 10 µM | > 10 µM | > 10 µM |  | 0 | 0 | 0 | 0 | 3.9
12 | OCCn1cc(-c2cnc3nnn(Cc4ccc5ncccc5c4)c3n2)cn1 | 93.7% | 100% | 97.1% | 86.2% | 79.2% | 99% | 92.2% | 93% | 93.9% | 103% | 102% | 93.6% | 88.8% | 97.7% | 74.9% | 105% | 101% | 99.3% | 95.3% | 97.1% | 99.7% | 105% | 97.7% | 97.7% | 96.4% | > 10 µM | > 10 µM |  | > 10 µM | > 10 µM | 1.8 | 0 | 1.3 | 0 | 0
13 | N[C@H]1CC[C@H](N[C@@H]2C[C@H]2c2ccccc2)CC1 [ORY-1001] | 93.7% | 99.5% | 93.2% | 100% | 100% | 93.2% | 105% | 94.1% | 99.3% | 95.3% |  |  |  |  |  | 96.3% | 98.7% | 97.4% | 101% | 98.4% | 97.7% | 103% | 99% | 96.3% | 103% | > 10 µM | > 10 µM |  | > 10 µM | > 10 µM | 0 | 0 |  | 0 | 0
14 | CCCCOC(=O)c1ccccc1Nc1cccc(C(F)(F)F)c1 [ufenamate] | 96.2% | 102% | 94.4% | 93.7% | 98.1% | 105% | 87.3% | 91.8% | 93.7% | 94.7% |  |  |  |  |  | 91.7% | 98.7% | 92.4% | 100% | 108% | 110% | 104% | 106% | 106% | 98.5% | > 10 µM | > 10 µM |  | > 10 µM | > 10 µM | 0 | 0 |  | 0 | 0
15 | O=C(Nc1ccccc1)[C@]12C[C@H]1/C(=N\O)c1ccccc1O2 [PHCCC] | 104% | 99% | 93.4% | 107% | 94.5% | 102% | 102% | 90.9% | 96.4% | 93% |  |  |  |  |  | 97.4% | 99.9% | 95.9% | 101% | 104% | 107% | 91.5% | 102% | 92.8% | 103% | > 10 µM | > 10 µM |  | > 10 µM | > 10 µM | 0 | 0 |  | 0 | 0

From the supplement of paper PMC13380429
